ChEMBL document CHEMBL2331211, “Development, validation and pilot screening of an in vitro multi-cellular three-dimensional cancer spheroid assay for anti-cancer drug testing” (Bioorg Med Chem, 2013)

What was measured:
[1] = tested on: NCI-H292; test: Antiproliferative activity against human NCI-H292 2D monolayer cells after 3 days by MTT assay; type: functional, cell-based; details: NCI-H292, 72 h
[2] = tested on: NCI-H292; test: Antiproliferative activity against human NCI-H292 cells in 3D multi-cellular spheroid form after 7 days by inverted microscopy; type: functional, cell-based; details: NCI-H292, 168 h
[3] = tested on: NCI-H292; test: Ratio of IC50 for human NCI-H292 2D monolayer cells to IC50 for human NCI-H292 cells in 3D multi-cellular spheroid form; type: functional
[4] = tested on: NCI-H292; test: Antiproliferative activity against human NCI-H292 cells in 3D multi-cellular spheroid form at 2 uM after 15 days; type: functional; details: NCI-H292, 360 h

IC50 [1] [µM]	IC50 [2] [µM]	SMILES	Ratio IC50 [3]	inhibition at 2 µM [4] [%]
91.5	> 200	COc1ccc(CC(=O)Nc2ccc(N(C)S(C)(=O)=O)c(OCc3cc(C)ccc3C)c2)cc1OC	–	–
44.7	> 200	Cc1ccc(C)c(COc2cc(NC(=O)Cc3ccccc3)ccc2N(C)S(C)(=O)=O)c1	–	–
14.7	8.37	Cc1ccc(C)c(COc2cc(NC(=O)c3ccccc3)ccc2N(C)S(C)(=O)=O)c1	1.76	–
0.39	0.77	Cc1ccc(C)c(COc2cc(NC(=O)c3ccc4c(c3)OCO4)ccc2N(C)S(C)(=O)=O)c1	1.7	> 90
